The text below walks through data of BindingDB's records for doi:10.1016/j.bmcl.2007.07.104 (Glaxosmithkline, 2007).

Each structure is given as a SMILES string.

This test has as its target Proto-oncogene tyrosine-protein kinase receptor Ret (Homo sapiens, UniProt P07949). The test can be described thus: RET Kinase Inhibition Assay. Conditions: pH 7.4; 22 °C.

Chain of Proto-oncogene tyrosine-protein kinase receptor Ret (P07949 whole entry): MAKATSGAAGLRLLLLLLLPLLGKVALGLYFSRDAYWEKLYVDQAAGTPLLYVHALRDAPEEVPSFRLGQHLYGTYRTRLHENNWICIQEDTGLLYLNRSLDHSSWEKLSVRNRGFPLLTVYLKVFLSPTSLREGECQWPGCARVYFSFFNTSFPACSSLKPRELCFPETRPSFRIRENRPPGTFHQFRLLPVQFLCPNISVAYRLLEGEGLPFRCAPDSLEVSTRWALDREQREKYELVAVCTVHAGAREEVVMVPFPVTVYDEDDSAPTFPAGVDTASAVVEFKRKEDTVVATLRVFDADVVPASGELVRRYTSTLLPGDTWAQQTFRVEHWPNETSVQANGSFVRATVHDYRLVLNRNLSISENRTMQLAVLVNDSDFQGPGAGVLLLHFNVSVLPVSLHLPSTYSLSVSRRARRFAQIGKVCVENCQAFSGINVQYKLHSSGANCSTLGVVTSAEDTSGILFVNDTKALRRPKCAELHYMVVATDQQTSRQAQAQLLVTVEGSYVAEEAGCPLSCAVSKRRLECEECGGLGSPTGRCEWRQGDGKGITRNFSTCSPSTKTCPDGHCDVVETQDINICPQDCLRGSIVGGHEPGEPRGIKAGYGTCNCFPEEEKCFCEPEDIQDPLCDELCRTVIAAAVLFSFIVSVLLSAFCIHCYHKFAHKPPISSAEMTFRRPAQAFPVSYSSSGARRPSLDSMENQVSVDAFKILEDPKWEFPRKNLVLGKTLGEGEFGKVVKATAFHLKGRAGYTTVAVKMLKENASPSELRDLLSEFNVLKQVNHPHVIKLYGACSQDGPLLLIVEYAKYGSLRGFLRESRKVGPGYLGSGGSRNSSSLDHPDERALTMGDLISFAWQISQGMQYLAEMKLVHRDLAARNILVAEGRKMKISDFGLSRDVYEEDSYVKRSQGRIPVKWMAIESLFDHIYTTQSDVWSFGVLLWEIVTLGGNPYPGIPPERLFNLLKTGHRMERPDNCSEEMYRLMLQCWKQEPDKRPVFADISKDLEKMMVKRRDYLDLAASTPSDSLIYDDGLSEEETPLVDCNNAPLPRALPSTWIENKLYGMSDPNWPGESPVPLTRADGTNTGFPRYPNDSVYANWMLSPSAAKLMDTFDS

The IC50 is the concentration needed to halve the response being measured. Read a low IC50 as higher potency. As for `Cc1ccc(O)cc1Nc1cc(C(F)(F)F)nc2ccc(-c3ccncc3)cc12` [4-methyl-3-{[6-(pyridin-4-yl)-2-(trifluoromethyl)quinolin-4-yl]amino}phenol], the IC50 is over 1 µM.
